Data taken from ChEMBL document CHEMBL1201862, “PubChem BioAssay data set” (2004).
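Step 1: Grow cells in 96-well plates. Step 2: Expose to compound for 48 hours at 5 concentrations. Step 3: Interpolate endpoints linearly; if unreached, use highest concentration. GI50: concentration for 50% inhibition of growth.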 Calls of active or inactive are those of the source. Rule as the data show it: active = GI50 up to about 1.1 µM and inactive = higher.

Columns and labels:
Assay in all cases: growth of human tumour cells (NCI), 48 h
U-251 = test system: U-251
SF-539 = test system: SF-539
DMS-273 = test system: DMS-273
A498 = test system: A498
HCT-15 = test system: HCT-15
IGROV-1 = test system: IGROV-1
OVCAR-5 = test system: OVCAR-5
HOP-92 = test system: HOP-92
TK-10 = test system: TK-10
CAKI-1 = test system: CAKI-1
A549 = test system: A549
HL-60 = test system: HL-60
RXF 393 = test system: RXF 393
DMS-114 = test system: DMS-114
UACC-257 = test system: UACC-257
RPMI-8226 = test system: RPMI-8226
SK-OV-3 = test system: SK-OV-3

SMILES | GI50 (U-251) | GI50 (SF-539) | GI50 (DMS-273) | GI50 (A498) | GI50 (HCT-15) | GI50 (IGROV-1) | GI50 (OVCAR-5) | GI50 (HOP-92) | GI50 (TK-10) | GI50 (CAKI-1) | GI50 (A549) | GI50 (HL-60) | GI50 (RXF 393) | GI50 (DMS-114) | GI50 (UACC-257) | GI50 (RPMI-8226) | GI50 (SK-OV-3)
O=[N+]([O-])c1cc(/C=N\NS(=O)(=O)c2ccc(Cl)cc2)c(O)c([N+](=O)[O-])c1 | 24 µM (inactive) | 23.3 µM (inactive) | 26.5 µM (inactive) | 35.7 µM (inactive) | 21.4 µM | 74.8 µM (inactive) | > 100 µM (inactive) | 36.3 µM (inactive) | > 100 µM (inactive) | 30.5 µM (inactive) | 37.8 µM (inactive) | 26.7 µM (inactive) | 32.8 µM (inactive) | 31.9 µM (inactive) | 66.5 µM (inactive) | 19 µM (inactive) | 31.3 µM (inactive)
CN1C(c2ccccc2)CC(=NO)CC1c1ccccc1 (stereo unspecified) | 67.6 µM (inactive) | 41.2 µM (inactive) | 28 µM (inactive) | 82 µM (inactive) | 37.9 µM | > 100 µM (inactive) | 67.3 µM (inactive) | 92.7 µM (inactive) | > 100 µM (inactive) | 48.2 µM (inactive) | 40.9 µM (inactive) | 16.4 µM (inactive) | 62.5 µM (inactive) | 25.7 µM (inactive) | 55.1 µM (inactive) | 24 µM (inactive) | > 100 µM (inactive)
N#CC1(C#N)C=CC(=C2OCC3CCCN23)C=C1 (stereo unspecified) | > 100 µM (inactive) | > 100 µM (inactive) | > 100 µM (inactive) | > 100 µM (inactive) | > 100 µM | > 100 µM (inactive) | > 100 µM (inactive) | 96.2 µM (inactive) | > 100 µM (inactive) | > 100 µM (inactive) | > 100 µM (inactive) | 87.5 µM (inactive) | > 100 µM (inactive) | > 100 µM (inactive) | > 100 µM (inactive) | > 100 µM (inactive) | > 100 µM (inactive)
